In publication PMC3145970, “Specific CLK Inhibitors from a Novel Chemotype for Regulation of Alternative Splicing” (Chemistry & Biology, 2011):
Like-named read-outs stand apart in the source and are kept apart here.

What was measured:
Experiment in all cases: Thermal stability shift assay
Assay type in all cases: binding
PLK4 = biological target: T1, PLK4 (Homo sapiens, UniProt O00444); details: read-out: Tm shift PLK4
T1 sequence (O00444 1-970): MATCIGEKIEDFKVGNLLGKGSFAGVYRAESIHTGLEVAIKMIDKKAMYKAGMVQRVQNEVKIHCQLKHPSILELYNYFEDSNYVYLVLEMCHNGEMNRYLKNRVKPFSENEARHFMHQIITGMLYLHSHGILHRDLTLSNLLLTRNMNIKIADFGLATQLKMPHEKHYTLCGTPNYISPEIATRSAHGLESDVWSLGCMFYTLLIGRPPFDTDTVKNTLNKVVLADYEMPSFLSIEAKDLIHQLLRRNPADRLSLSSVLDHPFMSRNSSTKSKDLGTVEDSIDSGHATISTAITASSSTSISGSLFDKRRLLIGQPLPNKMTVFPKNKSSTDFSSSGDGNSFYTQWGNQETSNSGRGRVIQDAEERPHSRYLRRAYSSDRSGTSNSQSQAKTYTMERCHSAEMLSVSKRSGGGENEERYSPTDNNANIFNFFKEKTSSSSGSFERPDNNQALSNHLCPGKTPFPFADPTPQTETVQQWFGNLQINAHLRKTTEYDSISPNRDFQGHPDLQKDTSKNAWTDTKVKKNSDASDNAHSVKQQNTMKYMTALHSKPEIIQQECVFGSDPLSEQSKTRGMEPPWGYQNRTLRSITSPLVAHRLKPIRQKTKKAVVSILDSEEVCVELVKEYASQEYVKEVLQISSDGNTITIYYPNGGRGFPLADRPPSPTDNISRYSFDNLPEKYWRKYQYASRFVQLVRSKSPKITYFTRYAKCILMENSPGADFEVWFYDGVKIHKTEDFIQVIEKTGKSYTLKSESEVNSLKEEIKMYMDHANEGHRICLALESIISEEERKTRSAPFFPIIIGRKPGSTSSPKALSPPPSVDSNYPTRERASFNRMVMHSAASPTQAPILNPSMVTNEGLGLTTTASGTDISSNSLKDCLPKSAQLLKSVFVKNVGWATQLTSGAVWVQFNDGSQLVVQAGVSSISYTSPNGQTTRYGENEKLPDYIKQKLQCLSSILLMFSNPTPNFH
Procedure, shortened: (§1)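 DSF read-out: SyproOrange fluorescence (1:1000) during thermal unfolding of 2 μM kinase with 10 μM compound. Buffer 10 mM HEPES pH 7.5, 500 mM NaCl; run on a real-time PCR machine.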

LYN = biological target: T2, LYN (Homo sapiens, UniProt P07948); details: read-out: Tm shift LYN
T2 construct: purchased in-house (SGC Oxford thermal shift panel)
Procedure, shortened: as §1

MSSK1 = biological target: T3, MSSK1 (Homo sapiens, UniProt Q9UPE1); details: read-out: Tm shift MSSK1
T3 construct: purchased in-house (SGC Oxford thermal shift panel)
Procedure, shortened: as §1

RSK1-C = biological target: T4, RSK1-C (Homo sapiens, UniProt Q15418); details: read-out: Tm shift RSK1-C
T4 construct: RSK1-C 0.7 4.0 1.6 1.9 1.9 0.3 0.9
Procedure, shortened: as §1

FGR = biological target: T5, FGR (Homo sapiens, UniProt P09769); details: read-out: Tm shift FGR
T5 construct: purchased in-house (SGC Oxford thermal shift panel)
Procedure, shortened: as §1

PKN2 = PKN2 (Homo sapiens, UniProt Q16513); details: read-out: Tm shift PKN2
Procedure, shortened: as §1

SLK = SLK (Homo sapiens, UniProt Q9H2G2); details: read-out: Tm shift SLK
Procedure, shortened: as §1

p38d = biological target: T6, p38d (Homo sapiens, UniProt O15264); details: read-out: Tm shift p38d
T6 construct: purchased in-house (SGC Oxford thermal shift panel)
T6 sequence (O15264 1-365): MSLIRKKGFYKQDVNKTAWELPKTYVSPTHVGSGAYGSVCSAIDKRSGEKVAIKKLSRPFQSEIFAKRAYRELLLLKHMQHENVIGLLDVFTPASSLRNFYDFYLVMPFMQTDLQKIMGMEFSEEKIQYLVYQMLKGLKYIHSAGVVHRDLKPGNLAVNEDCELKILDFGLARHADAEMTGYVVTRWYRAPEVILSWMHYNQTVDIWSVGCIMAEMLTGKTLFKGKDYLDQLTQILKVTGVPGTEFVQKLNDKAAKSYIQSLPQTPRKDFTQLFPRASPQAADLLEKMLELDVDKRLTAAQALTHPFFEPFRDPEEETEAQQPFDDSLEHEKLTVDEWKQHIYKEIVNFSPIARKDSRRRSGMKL
Procedure, shortened: as §1

CK2a2 = CK2a2 (Homo sapiens, UniProt P19784); details: read-out: Tm shift CK2a2
Procedure, shortened: as §1

SgK085 = biological target: T7, SgK085 (Homo sapiens, UniProt Q86YV6); details: read-out: Tm shift SgK085
T7 sequence (Q86YV6 1-388): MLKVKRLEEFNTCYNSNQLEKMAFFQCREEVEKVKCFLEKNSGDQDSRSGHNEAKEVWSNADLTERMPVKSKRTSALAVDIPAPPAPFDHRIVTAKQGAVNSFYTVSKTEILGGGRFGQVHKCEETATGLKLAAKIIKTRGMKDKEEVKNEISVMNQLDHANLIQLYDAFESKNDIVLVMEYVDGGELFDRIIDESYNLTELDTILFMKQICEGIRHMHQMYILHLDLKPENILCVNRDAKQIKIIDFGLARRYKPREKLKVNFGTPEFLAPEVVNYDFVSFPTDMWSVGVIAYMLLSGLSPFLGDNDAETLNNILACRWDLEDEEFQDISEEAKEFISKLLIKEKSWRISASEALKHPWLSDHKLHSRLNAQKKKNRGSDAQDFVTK
Procedure, shortened: as §1

CaMK2a = CaMK2a (Homo sapiens, UniProt Q9UQM7); details: read-out: Tm shift CaMK2a
Procedure, shortened: as §1

T3 sequence (Q9UPE1 whole entry): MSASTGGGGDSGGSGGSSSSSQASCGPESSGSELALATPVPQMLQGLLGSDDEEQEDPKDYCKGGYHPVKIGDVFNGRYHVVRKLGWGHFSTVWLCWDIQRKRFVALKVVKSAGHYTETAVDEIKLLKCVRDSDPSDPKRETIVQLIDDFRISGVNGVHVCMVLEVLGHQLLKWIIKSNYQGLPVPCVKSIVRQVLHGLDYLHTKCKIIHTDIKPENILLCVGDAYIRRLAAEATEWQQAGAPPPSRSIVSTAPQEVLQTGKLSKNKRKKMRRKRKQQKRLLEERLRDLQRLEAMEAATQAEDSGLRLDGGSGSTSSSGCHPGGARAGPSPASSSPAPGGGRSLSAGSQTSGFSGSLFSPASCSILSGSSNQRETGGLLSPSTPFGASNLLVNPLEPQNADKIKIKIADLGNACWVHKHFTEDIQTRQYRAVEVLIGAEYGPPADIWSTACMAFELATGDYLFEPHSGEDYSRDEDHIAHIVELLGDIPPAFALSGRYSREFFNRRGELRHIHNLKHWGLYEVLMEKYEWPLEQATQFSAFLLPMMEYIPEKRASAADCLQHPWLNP
T4 sequence (Q15418 418-675 limits assumed): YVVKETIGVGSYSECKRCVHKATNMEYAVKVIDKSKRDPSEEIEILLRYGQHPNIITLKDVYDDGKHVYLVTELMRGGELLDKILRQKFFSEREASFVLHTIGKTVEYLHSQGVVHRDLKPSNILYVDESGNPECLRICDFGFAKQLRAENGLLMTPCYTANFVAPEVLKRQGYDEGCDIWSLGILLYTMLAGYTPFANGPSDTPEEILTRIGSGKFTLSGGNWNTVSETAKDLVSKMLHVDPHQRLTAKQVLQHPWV
CaMK2a, sequence (Q9UQM7 whole entry): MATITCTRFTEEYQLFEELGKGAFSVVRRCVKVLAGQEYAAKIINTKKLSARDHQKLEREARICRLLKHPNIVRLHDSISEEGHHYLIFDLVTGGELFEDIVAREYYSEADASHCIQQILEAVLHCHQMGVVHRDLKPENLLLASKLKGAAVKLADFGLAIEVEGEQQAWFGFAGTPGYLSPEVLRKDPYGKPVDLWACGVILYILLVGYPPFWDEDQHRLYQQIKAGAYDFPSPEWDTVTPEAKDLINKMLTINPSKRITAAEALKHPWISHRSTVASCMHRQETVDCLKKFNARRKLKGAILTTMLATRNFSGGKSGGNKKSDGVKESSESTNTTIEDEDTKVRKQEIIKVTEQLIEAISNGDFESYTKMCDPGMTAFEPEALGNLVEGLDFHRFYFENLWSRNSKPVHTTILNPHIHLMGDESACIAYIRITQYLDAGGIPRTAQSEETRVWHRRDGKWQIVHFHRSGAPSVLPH
T2 sequence (P07948 whole entry): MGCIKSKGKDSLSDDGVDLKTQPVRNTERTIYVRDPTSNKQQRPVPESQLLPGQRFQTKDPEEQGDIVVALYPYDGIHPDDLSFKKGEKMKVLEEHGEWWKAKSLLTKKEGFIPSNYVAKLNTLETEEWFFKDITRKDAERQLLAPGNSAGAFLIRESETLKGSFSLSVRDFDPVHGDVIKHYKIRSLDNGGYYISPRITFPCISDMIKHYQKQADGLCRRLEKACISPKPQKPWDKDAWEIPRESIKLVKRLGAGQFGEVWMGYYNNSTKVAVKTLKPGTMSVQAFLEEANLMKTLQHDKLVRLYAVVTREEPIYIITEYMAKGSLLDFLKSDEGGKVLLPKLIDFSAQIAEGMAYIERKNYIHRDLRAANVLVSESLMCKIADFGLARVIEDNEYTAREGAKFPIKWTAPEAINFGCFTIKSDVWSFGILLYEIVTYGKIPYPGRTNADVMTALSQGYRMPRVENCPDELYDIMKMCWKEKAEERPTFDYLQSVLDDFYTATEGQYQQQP
CK2a2, sequence (P19784 whole entry): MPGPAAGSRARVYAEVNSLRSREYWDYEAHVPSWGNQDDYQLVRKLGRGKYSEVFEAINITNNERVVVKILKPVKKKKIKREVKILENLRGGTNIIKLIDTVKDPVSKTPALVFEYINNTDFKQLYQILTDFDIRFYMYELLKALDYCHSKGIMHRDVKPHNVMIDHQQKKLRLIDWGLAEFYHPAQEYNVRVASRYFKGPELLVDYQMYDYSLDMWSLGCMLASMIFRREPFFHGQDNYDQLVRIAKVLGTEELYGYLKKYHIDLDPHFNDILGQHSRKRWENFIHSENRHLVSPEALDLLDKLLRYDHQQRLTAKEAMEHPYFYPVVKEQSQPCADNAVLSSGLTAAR
PKN2, sequence (Q16513 whole entry): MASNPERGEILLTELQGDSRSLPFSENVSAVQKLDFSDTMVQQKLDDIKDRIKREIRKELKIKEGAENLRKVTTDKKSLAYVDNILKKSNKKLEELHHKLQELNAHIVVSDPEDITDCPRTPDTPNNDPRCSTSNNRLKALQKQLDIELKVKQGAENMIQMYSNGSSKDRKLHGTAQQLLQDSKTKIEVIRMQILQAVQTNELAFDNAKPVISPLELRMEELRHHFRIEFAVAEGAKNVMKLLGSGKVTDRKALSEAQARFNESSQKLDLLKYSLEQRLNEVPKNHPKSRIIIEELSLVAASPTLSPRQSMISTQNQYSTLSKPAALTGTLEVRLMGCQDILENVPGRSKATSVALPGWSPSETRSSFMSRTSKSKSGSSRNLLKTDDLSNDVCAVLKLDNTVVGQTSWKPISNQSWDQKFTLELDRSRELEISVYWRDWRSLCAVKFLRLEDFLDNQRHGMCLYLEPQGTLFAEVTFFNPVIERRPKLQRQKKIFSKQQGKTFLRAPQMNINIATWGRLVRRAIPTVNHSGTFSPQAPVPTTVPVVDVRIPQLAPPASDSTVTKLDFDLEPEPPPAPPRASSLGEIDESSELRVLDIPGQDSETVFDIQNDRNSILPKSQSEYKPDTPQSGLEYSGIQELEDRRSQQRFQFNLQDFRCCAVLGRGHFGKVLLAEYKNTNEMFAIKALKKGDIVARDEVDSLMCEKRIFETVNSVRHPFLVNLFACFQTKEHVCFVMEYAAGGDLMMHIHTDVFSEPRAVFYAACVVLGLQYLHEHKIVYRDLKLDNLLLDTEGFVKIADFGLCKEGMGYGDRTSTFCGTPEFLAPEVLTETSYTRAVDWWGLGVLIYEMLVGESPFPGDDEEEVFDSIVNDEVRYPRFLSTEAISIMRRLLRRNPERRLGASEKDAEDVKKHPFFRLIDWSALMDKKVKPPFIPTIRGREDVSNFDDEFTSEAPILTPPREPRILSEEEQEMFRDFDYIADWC
T5 sequence (P09769 whole entry): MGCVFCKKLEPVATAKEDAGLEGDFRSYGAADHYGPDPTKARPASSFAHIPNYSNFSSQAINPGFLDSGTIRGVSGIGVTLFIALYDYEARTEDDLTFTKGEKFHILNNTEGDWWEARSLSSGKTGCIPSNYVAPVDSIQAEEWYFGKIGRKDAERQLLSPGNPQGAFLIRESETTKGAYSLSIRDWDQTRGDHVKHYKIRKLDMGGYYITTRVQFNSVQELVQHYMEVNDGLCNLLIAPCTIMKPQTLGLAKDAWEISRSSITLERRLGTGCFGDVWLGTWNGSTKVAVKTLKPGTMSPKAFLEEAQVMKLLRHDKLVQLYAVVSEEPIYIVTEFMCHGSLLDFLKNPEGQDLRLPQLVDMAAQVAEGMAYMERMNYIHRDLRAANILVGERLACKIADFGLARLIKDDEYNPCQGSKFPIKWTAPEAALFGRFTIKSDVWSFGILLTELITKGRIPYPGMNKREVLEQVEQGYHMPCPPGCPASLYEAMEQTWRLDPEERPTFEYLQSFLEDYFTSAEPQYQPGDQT
SLK, sequence (Q9H2G2 whole entry): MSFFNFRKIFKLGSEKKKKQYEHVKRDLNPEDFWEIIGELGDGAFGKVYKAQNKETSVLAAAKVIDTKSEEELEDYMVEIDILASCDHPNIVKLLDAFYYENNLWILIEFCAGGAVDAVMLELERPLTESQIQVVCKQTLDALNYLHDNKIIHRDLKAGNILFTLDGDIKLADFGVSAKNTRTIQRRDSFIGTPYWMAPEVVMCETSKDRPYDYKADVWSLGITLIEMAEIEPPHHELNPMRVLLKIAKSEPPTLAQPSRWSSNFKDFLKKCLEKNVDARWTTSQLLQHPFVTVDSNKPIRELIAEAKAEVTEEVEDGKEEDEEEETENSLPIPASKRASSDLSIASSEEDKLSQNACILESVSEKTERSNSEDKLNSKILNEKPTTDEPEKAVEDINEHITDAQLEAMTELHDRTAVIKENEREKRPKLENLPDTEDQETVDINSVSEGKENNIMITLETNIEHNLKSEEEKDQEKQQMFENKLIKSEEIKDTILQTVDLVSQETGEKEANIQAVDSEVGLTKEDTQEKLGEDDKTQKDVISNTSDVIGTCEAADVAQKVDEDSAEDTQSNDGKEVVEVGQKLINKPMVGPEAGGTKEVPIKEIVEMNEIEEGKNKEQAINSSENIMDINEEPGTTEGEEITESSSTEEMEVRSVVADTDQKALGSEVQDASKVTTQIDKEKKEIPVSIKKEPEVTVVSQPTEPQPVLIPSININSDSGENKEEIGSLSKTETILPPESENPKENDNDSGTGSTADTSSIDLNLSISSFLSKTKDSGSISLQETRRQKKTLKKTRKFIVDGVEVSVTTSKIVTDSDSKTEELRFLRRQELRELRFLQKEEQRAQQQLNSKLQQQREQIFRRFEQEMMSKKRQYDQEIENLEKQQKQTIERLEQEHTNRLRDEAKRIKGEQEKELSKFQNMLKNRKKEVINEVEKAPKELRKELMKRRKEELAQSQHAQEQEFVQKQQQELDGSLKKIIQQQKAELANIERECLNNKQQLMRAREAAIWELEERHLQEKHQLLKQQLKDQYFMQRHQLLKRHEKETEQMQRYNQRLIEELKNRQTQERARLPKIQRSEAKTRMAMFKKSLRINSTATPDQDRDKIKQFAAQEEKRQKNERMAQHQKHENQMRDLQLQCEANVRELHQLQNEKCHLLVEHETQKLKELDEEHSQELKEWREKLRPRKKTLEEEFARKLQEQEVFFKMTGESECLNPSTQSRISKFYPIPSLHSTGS

Row | Structure (SMILES) | ΔTm at 10 µM (PLK4) | ΔTm at 10 µM (LYN) | ΔTm at 10 µM (MSSK1) | ΔTm at 10 µM (RSK1-C) | ΔTm at 10 µM (FGR) | ΔTm at 10 µM (PKN2) | ΔTm at 10 µM (SLK) | ΔTm at 10 µM (p38d) | ΔTm at 10 µM (CK2a2) | ΔTm at 10 µM (PLK4; inhibitor 10 μM) | ΔTm at 10 µM (LYN; inhibitor 10 μM) | ΔTm at 10 µM (MSSK1; inhibitor 10 μM) | ΔTm at 10 µM (RSK1-C; inhibitor 10 μM) | ΔTm at 10 µM (FGR; inhibitor 10 μM) | ΔTm at 10 µM (PKN2; inhibitor 10 μM) | ΔTm at 10 µM (SLK; inhibitor 10 μM) | ΔTm at 10 µM (p38d; inhibitor 10 μM) | ΔTm at 10 µM (CK2a2; inhibitor 10 μM) | ΔTm at 10 µM (SgK085; inhibitor 10 μM) | ΔTm at 10 µM (CaMK2a; inhibitor 10 μM) | further results
1 | CCOC(=O)c1c(C(C#N)=CN)c2ccc(Cl)c(Cl)c2n1C (mixture of isomers) [KH-CB20, (E/Z)-Ethyl 3-(2-Amino-1-Cyanovinyl)-6,7-Dichloro-1-Methyl-1H-Indole-2-Carboxylate] | 0.2 °C | 0 °C | 0.5 °C | 1.9 °C | 0.3 °C | 0.1 °C | 0.1 °C | -0.3 °C | 1.3 °C | – | – | – | – | – | – | – | – | – | – | – | ΔTm at 10 µM (SgK085): 4.5 °C; ΔTm at 10 µM (CaMK2a): 0.7 °C
2 | CCOC(=O)c1c(C(C#N)=CN(C)C)c2ccc(Cl)c(Cl)c2n1C (mixture of isomers) [compound 2, (E/Z)-Ethyl 6,7-Dichloro-3-[1-Cyano-2-(Dimethylamino)Vinyl]-1-Methyl-1H-Indole-2-Carboxylate] | – | – | – | – | – | – | – | – | – | 0.2 °C | 0 °C | 0.3 °C | 0.3 °C | -0.2 °C | -0.5 °C | -0.7 °C | 0.4 °C | 0 °C | 0.4 °C | 1 °C | –
3 | NC1=NC(=O)/C(=C2\CCNC(=O)c3[nH]c(Br)cc32)N1 [Hymenialdisine, hymenialdisine, reference compound] | – | – | – | – | – | – | – | – | – | 3 °C | 0.3 °C | 0.3 °C | 0.7 °C | 0.7 °C | 0.8 °C | 2.1 °C | -0.1 °C | 1.2 °C | 2.7 °C | 0.4 °C | –
4 | CCOC(=O)c1c(/C(C#N)=C\N)c2ccc(Cl)c(Cl)c2n1C [KH-CB19, (E)-Ethyl 3-(2-Amino-1-Cyanovinyl)-6,7-Dichloro-1-Methyl-1H-Indole-2-Carboxylate] | 0.7 °C | 0.2 °C | 0.2 °C | 1.6 °C | -0.3 °C | 0.6 °C | 0 °C | 0.3 °C | 1.4 °C | – | – | – | – | – | – | – | – | – | – | – | ΔTm at 10 µM (SgK085): 4.1 °C; ΔTm at 10 µM (CaMK2a): 0.5 °C
5 | Cn1c2c(Cl)c(Cl)ccc2c2c(C#N)c[nH]c(=O)c21 [compound 3, 7,8-Dichloro-9-Methyl-1-Oxo-2,9-Dihydro-1H-Pyrido[3,4-b]Indole-4-Carbonitrile] | – | – | – | – | – | – | – | – | – | 0.5 °C | 0.2 °C | 0.3 °C | 1.9 °C | 0.1 °C | 2.3 °C | -0.6 °C | 0.3 °C | 1.7 °C | 2.9 °C | 0.5 °C | –
